Assay: bioavailability of the substance micronized with the device
Assay type: in vivo
Settings: after micronization with the device from the present invention
From the text: As an example of pharmaceutically active substance herein is mentioned anti-inflammatory substance alclometasone-17,21-dipropionate which was successfully micronized with the device from the present invention yielding the product of increased bioavailability.

bioavailability of the micronized product: increased
SMILES: CCC(=O)OCC(=O)[C@@]1(OC(=O)CC)[C@H](C)C[C@H]2[C@H]3[C@H]([C@@H](O)C[C@@]21C)[C@@]1(C)C=CC(=O)C=C1C[C@H]3Cl [alclometasone-17,21-dipropionate]

Source: patent publication US8789785B2, “Device for micronization of solid materials and its use” (Lambano Trading Limited, priority 2010, dated 2014)
